From patent US12667583B2, “Method for preventing or treating a cornavirus infectious disease” (HENAN GENUINE BIOTECH CO., LTD., priority 2020, dated 2026)
Entries after “also recorded” stand apart in the source; their conditions may differ.

Tests used:
[1] = in vitro; settings: human
[2] = test system: 2019-nCoV (COVID-19); assay: Inhibitory effect against 2019-nCoV (COVID-19) viruses in Huh 7 cell model, viral RNA by qRT-PCR; type: cell-based; settings: for SI: CC50/EC50, Huh 7 cells; for EC50: viral RNA copies in supernatant, 48 h
Experimental: The antiviral activity assay was performed on a Huh 7 cell model. Three replicate wells were set for each assay and the assay was repeated three times in total.
1) In each well of a 24-well cell culture plate, 5×10^4 Huh 7 cells were inoculated. Under the culture conditions of 37° C. and 5% CO2, when the confluence reached 60%, 200 μL of 2019-nCoV (COVID-19) virus solution diluted with a DMEM medium containing 2% FBS were added to each well respectively according to the multiplicity of infection MOI of 0.005. After adsorption for 1 h in a 5% CO2 incubator at 37° C., the virus solution was discarded. The positive control drug and the Azvudine amine phosphate prodrug CL-236 were subjected to 2-fold dilution with a DMEM medium containing 2% FBS from the maximum non-toxic concentration, and added to the cell plate at 500 μL/well. Meanwhile, a control group (drug-free group) was set and the supernatant virus solution was collected at 48 h after infection.
2) RNA quantification of collected viruses by real-time RT-PCR (qRT-PCR):
From the collected supernatant virus solutions, 140 μL were measured separately, and subjected to RNA extraction according to the instruction of the QIAamp viral RNA mini kit. The qRT-PCR detection was carried out using the One Step TB Green PrimeScript PLUS RT-PCR Kit (Perfect Real Time), and the primers were RBD-qF1: 5′-[…]-3′ (SEQ. ID. NO. 1); and RBD-qR1:5′-[…]-3′(SEQ. ID. NO. 2).
The total volume of the reaction system was 20 μL:10 μL of 2× One Step TB Green RT-PCR Buffer 4, 1.2 μL of TaKaRa Ex Taq HS Mix, 0.4 μL of PrimeScript PLUS RTase Mix, 0.8 μL each of RBD-qF1 and RBD-qR1, 0.4 μL of ROX Reference Dye (50×), 2 μL of viral RNA, and 4.4 μL of RNase Free dH2O. The reaction parameters were as follows: reverse transcription at 42° C. for 5 min, pre-denaturation at 95° C. for 10 s, PCR for 40 cycles including denaturation at 95° C. for 10 s and annealing and extension at 60° C. for 30 s.
3) The inhibition rates of the drug at the concentrations were calculated. Inhibition rate (%)=1−viral RNA copies in experimental group/viral RNA copies in drug-free group×100%. At the same time, the median effective concentration (EC50) and therapeutic index (TI) of the drug were calculated, therapeutic index (TI)=concentration cytotoxicity 50% (CC50)/median effective concentration (EC50).

[3] = test system: AIDS; settings: as an anti-AIDS drug; cited from earlier work
[4] = test system: novel coronavirus (COVID-19) pneumonia; assay: Clinical trial in patients with novel coronavirus (COVID-19) pneumonia; settings: for Clinical advantage versus control (nucleic acid clearance rate, course of clearance, cure rate, course of cure): compared with the conventional treatment (Kaletra control)
[5] = test system: novel coronaviruses; assay: in vitro antiviral activity in MRC-5 cells infected with the novel coronaviruses; type: cell-based; settings: MRC5
From the text: The inventors have determined the in vitro antiviral activity of Compound 1 in MRC-5 cells infected with the novel coronaviruses.

[6] = Severe acute respiratory syndrome coronavirus 2, Huh 7 cells
[7] = individual patients, 10 per group, Azvudine 5 mg daily oral, Kaletra + arbidol + interferon control

CC(C)OC(=O)[C@H](C)NP(=O)(OCC1(N=[N+]=[N-])OC(n2ccc(N)nc2=O)C(F)C1O)Oc1ccccc1 (stereo partly shown) [CL-236]
CC50 [1]: 66.2 µM
SI [2]: 20.7
inhibition at 0.1 µM ([2]; Severe acute respiratory syndrome coronavirus 2, 0.1 uM, Huh 7 cells, MOI 0.005, 48 h after infection, read-out: Virus Inhibition Rate (%)): 9.38%
inhibition at 0.4 µM ([2]; Severe acute respiratory syndrome coronavirus 2, 0.4 uM, Huh 7 cells, MOI 0.005, 48 h after infection, read-out: Virus Inhibition Rate (%)): 18.8%
inhibition at 1.6 µM ([2]; Severe acute respiratory syndrome coronavirus 2, 1.6 uM, Huh 7 cells, MOI 0.005, 48 h after infection, read-out: Virus Inhibition Rate (%)): 37.5%
inhibition at 6.4 µM ([2]; Severe acute respiratory syndrome coronavirus 2, 6.4 uM, Huh 7 cells, MOI 0.005, 48 h after infection, read-out: Virus Inhibition Rate (%)): 65.6%
inhibition at 25.6 µM ([2]; Severe acute respiratory syndrome coronavirus 2, 25.6 uM, Huh 7 cells, MOI 0.005, 48 h after infection, read-out: Virus Inhibition Rate (%)): 75%
inhibition at 102.4 µM ([2]; Severe acute respiratory syndrome coronavirus 2, 102.4 uM, Huh 7 cells, MOI 0.005, 48 h after infection, read-out: Virus Inhibition Rate (%)): 81.2%
EC50 [2, 6]: 3.2 µM

CCC(CC)COC(=O)[C@H](C)N[P@](=O)(OC[C@H]1O[C@@](C#N)(c2ccc3c(N)ncnn23)[C@H](O)[C@@H]1O)Oc1ccccc1 [Remdesivir, reference compound]
CC50 [1]: > 45 µM
SI [2]: >30.0
EC50 [2, 6]: 1.5 µM

[N-]=[N+]=NC1(CO)OC(n2ccc(N)nc2=O)C(F)C1O (stereo not shown) [Compound 1, Azvudine]
Safety in phase II clinical trials [3]: good safety
Clinical advantage versus control (nucleic acid clearance rate, course of clearance, cure rate, course of cure) [4]: significant clinical therapeutic advantages
Clinical advantage versus control (nucleic acid clearance rate, course of clearance, cure rate, course of cure) ([4]; listed as compound of formula (1)): obvious advantages
Drug-related toxic and side effects during the treatment ([4]; human, in vivo): no drug-related toxic and side effects were found
From inclusion confirmed by nucleic acid test to clearance [4, 7]: Clearance: day 4; also recorded: Clearance: day 2; also recorded: one week; also recorded: Clearance: day 3
From inclusion confirmed by nucleic acid test to discharge [4, 7]: Discharge: day 7; also recorded: Discharge: day 6; also recorded: Discharge: day 8; also recorded: Discharge: day 5
Patients discharged within 8 days ([4]; of 10 patients in the group): seven
Patients turned negative by the nucleic acid test ([4]; of 10 patients in the group): 10
Time to turn negative after start of treatment ([4]; one patient who had failed supportive treatment with Kaletra): three days
EC50 [5]: 25 µM
